Laboratory results taken from a melting point compilation (Tetko et al.; mined from patent text by program, amines drawn as free bases though some values may be those of a salt).

Row | melting point | SMILES
1 | 129 to 130 °C | CC12CCCCC1CCC1C2CCC2(C)C(C(O)c3ccccc3)CCC12 (stereo unspecified)
2 | 155 to 157 °C | CC(C)n1nc(Br)nc1O
3 | 166 to 167 °C | CC(C)(C)OC(=O)Nc1cc(Cl)c(C#Cc2ccccc2)cc1[N+](=O)[O-]
4 | 217 °C | O=C1CCC(c2ccccc2)(c2ccccc2)[C@@H]2CN(C(=O)Cc3ccccc3Br)C[C@H]12 (racemic)
5 | 222 to 223 °C | COC(=O)[C@H]1C[C@H](NC(=O)c2cccc(CNC(=O)OC(C)(C)C)c2)c2c(Cl)cc(Cl)cc2N1 (relative stereo)
6 | 176 °C | O=C(O)c1cccc(F)c1Nc1ccccc1F
7 | 156 to 158 °C | CC(C)N1C(=O)c2ccccc2N(S(C)(=O)=O)S1(=O)=O
8 | 140 to 142 °C | COc1cc(/C=C\c2ccc([N+](=O)[O-])cc2)cc(OC)c1OC
9 | 98 to 99 °C | CCc1nn2c(-c3ccc(Cl)cc3Cl)nc(C)nc2c1N(CC)CC
10 | 183 °C | O=C(O)c1ccc(C=CC(=O)N2CCc3c([nH]c4ccccc34)C2c2ccc3c(c2)CCO3)nc1 (stereo unspecified)
11 | 172 °C | COc1cc(C(=O)c2ccc(C(F)(F)F)cc2)cc([N+](=O)[O-])c1O
12 | 81 to 83 °C | CCOC(=O)C=Cc1cc(Br)cc(Cc2cccnc2)c1
13 | 93 to 94 °C | O=C(CCCC(=O)Oc1ccc(C(=O)OCc2ccccc2)cc1)Oc1ccc(C(=O)OCc2ccccc2)cc1
14 | 104 to 105 °C | CCOC(=O)c1c(O)c2ccc(F)cc2c(=O)n1CC(C)C
15 | 162 to 163 °C | Cn1cc(C(=O)NCc2ccc(Cl)cc2)c(=O)c2cc(CN3CC4CC3CO4)ccc21 (stereo unspecified)
16 | 250 °C | CN1CCN(c2ccc3nc(-c4ccc(F)cc4)c(-c4ccncc4)n3n2)CC1
17 | 162 to 164 °C | Cc1ccc2ncc(C(=O)NC3CCCC3)c(=O)n2c1
18 | 92 to 94 °C | CS(=O)(=O)Nc1ccc(CCBr)cc1
19 | 138 to 140 °C | O=S1(=O)NCC(O)c2ccsc21 (stereo unspecified)
20 | 148 to 150 °C | O=C1CCc2cc(-n3ccnc3)ccc21
21 | 121 to 122 °C | CSc1cn(C)cc(-c2cccc(C(F)(F)F)c2)c1=O
22 | 220 to 226 °C | N#Cc1cnc2c(=O)c3ccccc3oc2c1
23 | 200 to 204 °C | Cc1c(-c2ccccc2)oc2c(C(=O)NCCCN3CCN(c4ccc(Cl)cc4)CC3)cccc2c1=O
24 | 193 to 197 °C | CC#CCOc1cc2ncc(C#N)c(Nc3cc(OC)c(Cl)cc3Cl)c2cc1OC

Row | melting point | SMILES
25 | 152 to 153 °C | CNc1nc(C(=O)O)ccc1C(=O)OC
26 | 201 to 203 °C | CCOC(=O)C=CNc1oc2ccc(CC)cc2c(=O)c1C=O
27 | 100 to 104 °C | C=C(CO)[C@H](C(=O)OC(c1ccccc1)c1ccccc1)N1C(=O)[C@@H]2N=C(c3ccccc3)O[C@@H]21
28 | 149 to 151 °C | COc1nc2ccccn2c(=O)c1-c1ccc(Cl)cc1
29 | 158 to 159 °C | O=c1[nH]c(-c2ccccc2)c(-c2ccccc2)o1
30 | 116 to 118 °C | COC(=O)CCc1cc(-n2nc3ccc(Br)cc3n2)c(O)c(C(C)(C)C)c1
31 | 129 to 130 °C | CC(=O)OCC1OC(n2ccc(=O)[nH]c2=O)C(OC(C)=O)C1OC(C)=O (stereo unspecified)
32 | > 260 °C | O=C1c2ccccc2C(=O)c2oc(-c3ccccc3F)nc21
33 | 140 to 142 °C | CCNCc1ccc(O)c(C(CCN(C(C)C)C(C)C)c2ccccc2)c1 (stereo unspecified)
34 | 147 to 149 °C | O=C1Cc2cc(NC(=O)C(=O)N3CCC(Oc4ccc(F)cc4)CC3)ccc2N1
35 | 47 to 48 °C | CCOC(=O)c1c([N+](=O)[O-])c(C)nn1C
36 | 90 to 92 °C | COc1c(Nc2ncc(Cl)c(Nc3ccccc3S(=O)(=O)N3CCC(O)C3)n2)ccc2c1CCCC(NCCO)C2 (stereo unspecified)
37 | 148 to 150 °C | CCOC(=O)c1ccc(C(C(N)=O)C(C)c2cc(N)ccc2N2CCCCC2)cc1 (stereo unspecified)
38 | 205 to 206 °C | CCCCCCCCc1c(C)[nH]c(C)c(C#N)c1=O
39 | 115 to 117 °C | NC(=O)Cc1cccc(Oc2ccccc2)c1
40 | 222 °C | COc1ccc(C)cc1NC(=O)Nc1ccc(N2CCN(C(=O)C3CCCCC3)CC2)cc1
41 | 121 to 125 °C | C=C(CN1CCOCC1)C(=O)O
42 | 179 to 180 °C | CC(=O)Nc1c([N+](=O)[O-])c(Br)nn1-c1c(Cl)cc(C(F)(F)F)cc1Cl
43 | 228 to 230 °C | CC(=O)N1c2ccccc2NC(=O)c2cscc21
44 | 75 to 77 °C | Cc1nn(C)c(C)c1C(=O)NC/C=C\COc1cc(CN2CCCCC2)ccn1
45 | 124 °C | CC1CN(CC(N)=O)C(=O)N1 (stereo unspecified)
46 | 149 to 151 °C | O=c1[nH]c2ccccc2c(=O)n1CCOCCO
47 | 107 to 109 °C | COc1ccc(C(=O)Nc2ccccc2)cc1NS(=O)(=O)c1ccccc1Cl
48 | 153 to 155 °C | CC(C)(CC(C)(c1ccccc1)c1ccc(O)c(C(=O)O)c1)c1ccccc1 (stereo unspecified)

Row | melting point | SMILES
49 | 198 to 200 °C | CCCCCCC(c1cccc(C(=O)NC(c2ccccc2)c2ccccc2)c1)c1nnn[nH]1 (stereo unspecified)
50 | 207 to 208 °C | CNc1cccc(-c2nc(=O)c3ccccc3s2)n1
51 | 66 to 67 °C | CC(=O)Cc1nc(CN2CCCCC2)no1
52 | 120 to 122 °C | COC(=O)C1CN(Cc2ccccc2)c2ccccc2CN1S(=O)(=O)c1ccc(OC)cc1 (stereo unspecified)
53 | 135 to 136 °C | CCN(CC)c1ccc(NC(=O)c2cnn(-c3ccc(F)cc3)c2C)cc1C#N
54 | 272 to 273 °C | O=C(O)c1cc(-c2ccc(-c3ccc(C(F)(F)F)cc3)o2)ccc1O
55 | 158 to 161 °C | O=C(c1cc2c(OC[C@@H](O)CN3CCC(c4ccc5ccccc5c4)CC3)cccc2[nH]1)N1CCCC1
56 | 41 to 42 °C | OCCCc1nc(-c2ccc(Cl)cc2)co1
57 | 149 to 150 °C | Cc1c(C)c2c(c(C)c1N)C(c1ccc(-c3ccccc3)cc1)CO2 (stereo unspecified)
58 | 230 to 231 °C | O=C(c1ccc(F)cc1)N1Cc2c(-c3ccc(F)cc3)ncn2-c2ccccc21
59 | > 250 °C | CCc1nc2c(N)nc3ccccc3c2n1CC1(O)CCSCC1
60 | 65 to 66 °C | CC(=O)n1cc(-c2cccc(Cl)c2Cl)c(C(F)(F)F)c1
61 | 222 to 225 °C | Cc1cc(C)c(Nc2nc(C)ccc2S(=O)(=O)c2ccc(C(=O)c3ccccc3)cc2)c(C)c1
62 | 119 to 120 °C | NC(=O)COCCN1CCN(C(c2ccccc2)c2ccccc2)CC1
63 | 144 to 145 °C | CCC(C)n1ncn(-c2ccc(N3CCN(c4ccc(OCC(O)(Cn5cncn5)c5ccc(Cl)cc5Cl)cc4)CC3)cn2)c1=O (stereo unspecified)
64 | 226 to 233 °C | NC(=O)c1sc2nccc(N3CCC(c4ccccc4)CC3)c2c1N
65 | 173 to 174 °C | N#Cc1ccc2oc(Cc3cc4cc(C#N)ccc4o3)cc2c1
66 | 81 to 87.5 °C | CCN(CC)CCCCNc1ncc2cc(-c3c(Cl)cccc3Cl)c(NC(=O)Nc3ccccc3)nc2n1
67 | 50 to 51 °C | CC(C)c1ccc(CCCC(=O)O)cc1
68 | 226 to 228 °C | c1ccc(-c2nc(-c3ccc4cc(OCc5nnn[nH]5)ccc4c3)cs2)cc1
69 | 160 to 161 °C | O=C1N[C@H](Cc2ccc(F)cc2)[C@H](c2ccc(C(F)(F)F)cc2)O1 (racemic)
70 | 67 to 68 °C | Cc1nn(-c2c(Cl)cc(C(F)(F)F)cc2Cl)nc1CN(C)C
71 | 123 to 124 °C | CCOC(=O)N1CCN(c2ncnc3c2cnn3Cc2ccncc2)CC1
72 | 183 to 184 °C | C1=Cc2ccccc2NN=C1

Row | melting point | SMILES
73 | 128 to 129 °C | Cc1cc(Br)cc(C=NO)c1
74 | 48 to 49.5 °C | O=C(c1cccnc1)N1CC2CCC(C1)O2
75 | 136 °C | CC(=O)N1CCC(CC(=O)c2ccc(N(C)C)cc2)CC1
76 | 175 to 177 °C | Cc1ccc2c(n1)Oc1ccc(C(C)C(=O)OCC(N)=O)cc1C2 (stereo unspecified)
77 | 112 to 113 °C | COC(=O)CCc1oc(-n2ccnc2S(C)(=O)=O)nc1-c1ccc(Cl)cc1
78 | 241 to 242 °C | Nc1ccn([C@H]2C=C[C@@H](O)C2)c(=O)n1 (racemic)
79 | 243 °C | CN(C)CC(=O)Nc1cccc2c1C(=O)c1c-2n[nH]c1-c1ccc(N2CCNCC2)cc1
80 | 142 to 143 °C | Cc1nc2c(O)c(CC[C@@H](O)c3ccccc3)c(C(=O)N(C)C)cc2n1COCC[Si](C)(C)C
81 | 195 to 197 °C | Cc1ccc(S(=O)(=O)OCCc2cc3ccccc3o2)cc1
82 | 100 °C | Brc1ccc(N2CCN(Cc3ccccc3)CC2)nc1
83 | 145 to 147 °C | NC(=O)c1ccccc1NCCC12CCCN1CCC2
84 | 160 °C | CCCCN1C(=O)NC(Cc2ccc(C=O)cc2)C1=O (stereo unspecified)
85 | 135 to 136 °C | CC(=O)OCC1=C(C(=O)O)N2C(=O)C(NC(=O)Cc3ccc(CN=[N+]=[N-])cc3)C2SC1 (stereo unspecified)
86 | 122 to 123 °C | CN1C(=O)NC(=O)C1(C)O (stereo unspecified)
87 | 42 to 43 °C | CC(=O)c1ccccc1Cc1ccccc1
88 | 186 °C | Cn1cnc(COc2nc3c(-c4ccccc4F)nncn3c2-c2ccccc2)n1
89 | 158 to 167 °C | CC(=O)Oc1cc2ccc(S(=O)(=O)Cl)cc2cc1OC(C)=O
90 | 183 to 184 °C | COC(c1ccccc1)c1nc2c(N)nc3ccccc3c2n1CC(C)C (stereo unspecified)
91 | 160 °C | CC(C)(c1cc(F)cc([N+](=O)[O-])c1O)c1cc(Cl)cc([N+](=O)[O-])c1O
92 | 142 to 144 °C | CCCOCCOc1ccc(-c2ccc3c(c2)C=C(C(=O)O)CCCN3CC(C)C)cc1
93 | 165 to 168 °C | CC(C)(C)NNC(=S)c1ccccc1
94 | 147 to 149 °C | O=[N+]([O-])c1cc(-c2ccco2)ccc1Nc1cccc(-n2ccnc2)c1

Row | SMILES | melting point
95 | Cc1nc(C(N)=O)c2n1-c1ccc(Cl)cc1C(c1ccccc1F)=NC2 | 300 to 305 °C
96 | CCc1cc(C(=O)c2ccccc2Cl)c(-n2c(C)nnc2CNC(=O)c2ccccc2)s1 | 160 to 161 °C
97 | CN1CC(CNC(=N)NC(=O)c2cccnc2)CC2c3cccc4c3c(cn4C)CC21 (stereo unspecified) | 207 to 209 °C
98 | Cc1ccc(Cn2cc(C(=O)C(=O)O)c3cc(-c4ccccc4)ccc32)cc1 | 195 to 196 °C
99 | CCc1nc2ccccc2c(=O)n1-c1ccccc1C | 93 to 94 °C
100 | Nc1c(Cl)cccc1C(=O)c1ccccc1F | 86 to 87.5 °C
101 | CN(C)c1ccc(C(=O)C(C)(C)N(C)C)cc1 | 89 to 91 °C
